From the supplement of paper PMC10307832

Tests used:
Test in all cases: relative viability (nuclei count vs DMSO), 5 days (fraction); higher = more cells survive
TPCA-1 + Dasatinib = compound: C1=CC(=CC=C1C2=CC(=C(S2)NC(=O)N)C(=O)N)F [TPCA-1] + Cc1nc(Nc2ncc(C(=O)Nc3c(C)cccc3Cl)s2)cc(N2CCN(CCO)CC2)n1 [Dasatinib] (partner 0.075 µM)
In short: (§1)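 Medians of duplicate plates are given as relative viability. That measure is the nuclei count in treated wells divided by the count in vehicle wells. Counts were taken on 4× images of lung cancer cell lines in 1536-well plates, 5 days after pin-tool dosing the day after seeding with one drug alone or a fixed anchor-drug dose plus five library-drug doses (not always all listed) in √10 steps.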

[1] = compound: C1/C(=C\C2=CC=CS2)/C(=O)/C(=C/C3=CC=CS3)/C1 + O=C(c1cc(Cc2n[nH]c(=O)c3ccccc23)ccc1F)N1CCN(C(=O)C2CC2)CC1 [Olaparib] (partner 8 µM)
In short: as §1

TPCA-1 + AZD7762 = compound: C1=CC(=CC=C1C2=CC(=C(S2)NC(=O)N)C(=O)N)F [TPCA-1] + NC(=O)Nc1cc(-c2cccc(F)c2)sc1C(=O)N[C@H]1CCCNC1 [AZD7762] (partner 0.2 µM)
In short: as §1

TPCA-1 + Pictilisib = compound: C1=CC(=CC=C1C2=CC(=C(S2)NC(=O)N)C(=O)N)F [TPCA-1] + CS(=O)(=O)N1CCN(Cc2cc3nc(-c4cccc5[nH]ncc45)nc(N4CCOCC4)c3s2)CC1 [Pictilisib] (partner 1 µM)
In short: as §1

Row | Cell Line | relative viability (TPCA-1 + Dasatinib; first compound 0.04 µM) | relative viability (TPCA-1 + Dasatinib; first compound 0.1265 µM) | relative viability (TPCA-1 + Dasatinib; first compound 0.4 µM) | relative viability (TPCA-1 + Dasatinib; first compound 1.265 µM) | relative viability (TPCA-1 + Dasatinib; first compound 4 µM) | relative viability ([1]; first compound 0.2 µM) | relative viability ([1]; first compound 0.6325 µM) | relative viability ([1]; first compound 2 µM) | relative viability ([1]; first compound 6.325 µM) | relative viability ([1]; first compound 20 µM) | relative viability (TPCA-1 + AZD7762; first compound 0.04 µM) | relative viability (TPCA-1 + AZD7762; first compound 0.1265 µM) | relative viability (TPCA-1 + AZD7762; first compound 0.4 µM) | relative viability (TPCA-1 + AZD7762; first compound 1.265 µM) | relative viability (TPCA-1 + AZD7762; first compound 4 µM) | relative viability (TPCA-1 + Pictilisib; first compound 0.04 µM) | relative viability (TPCA-1 + Pictilisib; first compound 0.1265 µM) | relative viability (TPCA-1 + Pictilisib; first compound 0.4 µM) | relative viability (TPCA-1 + Pictilisib; first compound 1.265 µM) | relative viability (TPCA-1 + Pictilisib; first compound 4 µM)
1 | HARA | 0.298 | 0.289 | 0.298 | 0.257 | 0.231 | 1.11 | 0.862 | 0.944 | 0.716 | 0.83 | 0.317 | 0.504 | 0.39 | 0.471 | 0.349 | 0.591 | 0.4 | 0.433 | 0.393 | 0.331
2 | HCC-44 | – | – | – | – | – | 0.959 | 0.985 | 0.907 | 0.896 | 0.989 | 1 | 1.01 | 0.982 | 1.08 | 1.02 | 0.684 | 0.571 | 0.619 | 0.792 | 0.508
3 | IA-LM | – | – | – | – | – | 0.874 | 0.871 | 0.755 | 0.618 | 0.879 | – | – | – | – | – | 0.319 | 0.339 | 0.417 | 0.376 | 0.404
4 | NCI-H520 | 0.219 | 0.187 | 0.223 | 0.18 | 0.176 | 0.316 | 0.34 | 0.324 | – | 0.35 | – | – | – | – | – | 0.351 | 0.242 | 0.307 | 0.319 | 0.319
5 | NCI-H522 | 0.993 | 0.833 | 1.11 | 0.844 | 0.788 | 0.626 | 0.643 | 0.657 | 0.625 | 0.742 | 0.898 | 0.904 | 0.857 | 0.853 | 0.894 | – | – | – | – | –
6 | NCI-H661 | 1 | 0.838 | 0.928 | 0.806 | 0.394 | 0.757 | 0.76 | 0.712 | 0.614 | 0.81 | – | – | – | – | – | 0.467 | 0.325 | 0.452 | 0.347 | 0.321
7 | NCI-H1299 | – | – | – | – | – | 1.01 | 0.969 | 0.953 | 0.817 | 0.962 | – | – | – | – | – | 0.854 | 0.669 | 0.828 | 0.614 | 0.243
8 | NCI-H1563 | 0.42 | 0.453 | 0.468 | 0.455 | 0.452 | – | – | – | – | – | – | – | – | – | – | 0.671 | 0.633 | 0.63 | 0.661 | 0.611
9 | NCI-H1623 | 0.523 | 0.466 | 0.576 | 0.62 | 0.336 | – | – | – | – | – | – | – | – | – | – | – | – | – | – | –
10 | NCI-H1648 | – | – | – | – | – | 0.855 | 0.81 | 1.03 | 0.792 | 0.814 | 0.807 | 0.682 | 0.684 | 0.806 | 0.668 | – | – | – | – | –
11 | NCI-H1650 | 0.361 | – | 0.336 | 0.269 | 0.269 | 0.854 | 0.793 | 0.734 | 0.69 | 0.717 | – | – | – | – | – | 0.7 | 0.537 | 0.592 | 0.423 | 0.422
12 | NCI-H1703 | – | – | – | – | – | 0.547 | 0.54 | 0.536 | 0.423 | 0.574 | 0.132 | 0.118 | 0.136 | – | 0.122 | 0.263 | 0.284 | 0.259 | – | 0.213
13 | NCI-H2009 | 0.395 | 0.267 | 0.278 | 0.223 | 0.177 | 0.71 | 0.683 | 0.701 | – | 0.707 | – | – | – | – | – | 0.974 | 0.741 | 0.896 | 0.272 | 0.318
14 | NCI-H2023 | 0.731 | 0.521 | 0.527 | 0.508 | 0.216 | 0.457 | 0.501 | 0.459 | 0.459 | 0.417 | – | – | – | – | – | 0.264 | 0.177 | 0.237 | 0.176 | 0.115
15 | NCI-H2228 | 0.669 | 0.491 | 0.521 | 0.386 | 0.301 | 0.69 | 0.431 | 0.606 | 0.543 | 0.482 | – | – | – | – | – | 0.379 | 0.358 | 0.402 | 0.454 | 0.186
16 | NCI-H2342 | 0.323 | 0.323 | 0.276 | 0.241 | 0.294 | 0.392 | 0.464 | 0.454 | 0.419 | 0.435 | 0.504 | 0.469 | 0.403 | 0.349 | 0.404 | – | – | – | – | –
17 | SK-LU-1 | 0.217 | 0.189 | 0.209 | 0.183 | 0.173 | 0.427 | 0.34 | 0.541 | 0.443 | 0.514 | – | – | – | – | – | 0.797 | 0.465 | 0.44 | 0.436 | 0.317
18 | SK-MES-1 | 0.491 | 0.251 | 0.333 | 0.224 | 0.152 | 0.792 | 0.781 | 0.696 | 0.669 | 0.729 | – | – | – | – | – | 0.403 | 0.316 | 0.305 | 0.255 | 0.276
19 | SW 900 | 0.768 | 0.526 | 0.685 | 0.307 | 0.583 | 0.752 | 0.839 | 0.87 | 0.882 | 0.99 | – | – | 0.685 | 0.631 | 0.586 | – | – | – | – | –
20 | SW 1573 | 0.669 | 0.375 | 0.476 | 0.361 | 0.336 | 0.394 | 0.455 | 0.556 | 0.435 | 0.248 | – | – | – | – | – | 0.54 | 0.419 | 0.506 | 0.505 | 0.495
